Source: ChEMBL document CHEMBL1154579, “Novel cytotoxic diterpenes from Casearia arborea” (J Nat Prod, 2000)

Tests used:
LOX IMVI = assay: Cytotoxicity against human LOX IMVI cells after 2 days; assay type: functional, cell-based; conditions: 48 h
SF-539 = assay: Cytotoxicity against human SF539 cells after 2 days; assay type: functional, cell-based; conditions: SF-539, 48 h

Compound	IC50 (LOX IMVI)	IC50 (SF-539)
C=C/C(C)=C/C[C@]1(C)[C@H](C)CC[C@@]23C(=C[C@H](OC(=O)c4ccc(O)cc4)C[C@@H]12)[C@@H](OC(C)=O)O[C@H]3OC(C)=O [CASEARBORIN A]	290 nM	290 nM
C=C/C(C)=C/C[C@]1(C)[C@H](C)CC[C@@]23C(=C[C@H](OC(=O)c4ccc(O)c(OC)c4)C[C@@H]12)[C@@H](OC(C)=O)O[C@H]3OC(C)=O [CASEARBORIN B]	290 nM	290 nM
C=C/C(C)=C/C[C@]1(C)[C@H](C)C[C@H](OC(=O)c2ccc(O)cc2)[C@@]23C(=C[C@H](O)C[C@@H]12)[C@@H](OC(C)=O)O[C@H]3OC(C)=O [CASEARBORIN C]	290 nM	290 nM
C=C/C(C)=C/C[C@]1(C)[C@H](C)C[C@H](O)[C@@]23C(=C[C@H](OC(=O)c4ccc(O)cc4)C[C@@H]12)[C@@H](OC(C)=O)O[C@H]3OC(C)=O [CASEARBORIN D]	290 nM	290 nM
C=C/C(C)=C/C[C@]1(C)[C@H](C)C[C@H](OC(=O)c2ccc(O)cc2)[C@@]23C(=C[C@H](OC(C)=O)C[C@@H]12)[C@@H](OC(C)=O)O[C@H]3OC(C)=O [CASEARBORIN E]	290 nM	290 nM
